Experimental findings from US9139615B2, “High-affinity, dimeric inhibitors of PSD-95 as efficient neuroprotectants against ischemic brain damage and for treatment of pain” (University of Copenhagen, priority 2011, dated 2015) are described below.

Data set [1] is described as follows: Human blood plasma stability assay. The data set is classed as in vitro ADME. The conditions noted are these: human, plasma; 0.25 mM, 37° C., in vitro; read-out: half-life (T1/2) in human blood plasma. As for the experimental part:
Ligands (dimeric PSD-95 inhibitors) for the PDZ domain of PSD-95 were dissolved in human blood plasma (270 μL; 3H Biomedical, Sweden, cat no 1300-1-P50) to a concentration of 0.25 mM (30 μL, of 2.5 mM) and incubated at 37° C. Aliquots (30 μL) were removed at various time intervals (e.g. 0, 5, 10, 20, 40, 80, 160, 320, 960, 1280, 2550, 4560 and 7240 min) and quenched with 60 μL, trichloroacetic acid (aq., 5%). The aliquots were vortexed, and incubated 15 min, at 4° C. prior to centrifugation at 18,000 g for 2 min. The supernatants were analyzed by analytical RP-HPLC (UV218) to quantify compound relative to time zero, and also evaluated qualitatively by ESI-LC/MS in order to identify the compound (m/z) in the sample. Procaine (positive control) and procainamide (negative control) were investigated at 50 μM to validate the procedure. Ligand recoveries following the precipitation procedure were between 85-95%.

A short description of data set [2]: Blood-brain barrier permeability of fluorescent analogues. The data set is classed as in vivo, mice. The conditions noted are these: mouse, in vivo, iv. On the procedure: VI.ii. Blood-brain Barrier Permeability. […] After injection of the compounds, the mice are perfused with paraformaldehyde and the brains are carefully removed, post-fixed in paraformaldehyde, processed into coronal sections, and quantified for fluorescence (Example 8).
The fluorescent ligands were injected intravenously (3 nmol/g) and the location of the ligands was detected by fluorescence microscopy of coronal brain slices (n=8) mice, was evaluated 2 hours after injection. Two sections of the brain, prior to and two after the anterior commissure (n=5), were selected for BBB permeability analysis. The anterior commissure (Bregma: −0.3) was used as a fix point in the brain in order to analyse anatomically identical brain sections. The intensity of the 5-FAM fluorophore was measured semi-quantitatively using a fluorescence microscopy system (Olympus System Microscope model BX-51, Denmark) with a 10× objective (Olympus 10×/0.15 UPlanApo) connected to a high-resolution microscope digital camera (Olympus model DP70), which transferred images to an image-capturing software (Image Pro Plus software). All images were taken using the same microscope settings and with constant camera exposure time. Intensities were quantified using the ImageJ software.
5-FAM-labeled derivative of Tat-NR2B9c is designated MS23. After injection of the compounds, the mice are perfused with paraformaldehyde and the brains are carefully removed, post-fixed in paraformaldehyde, processed into coronal sections, and quantified for fluorescence.
C57BL/6 mice with 6 hour post-surgical survival time were euthanized by cervical dislocation. C57BL/6 mice with 48 hour post-surgical survival were anesthetized with an overdosed of pentobarbital (the pharmacy of the Faculty of Life Sciences, University of Copenhagen, Denmark) in order to collect blood and tissue samples. All brains were carefully removed, frozen in gaseous CO2 and cut into 6 series of 30 μm coronal cryostat sections and stored at −80° C. until further use. C57BL/6J mice used to investigate the blood-brain barrier (BBB) permeability of AB143, AB145, AB148, and MS23 were deeply anesthetized and perfused through the left ventricle, using 10 ml chilled Soerensens phosphate buffer (SB) ([…], 125 mM Na2HPO4, pH 7.4) followed by 20 mL SB containing 4% paraformaldehyde (PFA). The brains were carefully removed and post-fixed in 4% PFA for 1 hour followed by immersion in SB containing 20% sucrose over night. The brains were frozen on gaseous CO2 and processed into 16 μm coronal cryostat sections.

Where no end group is shown, it is not given here.

For “YGRKKRRQRRRKLSSIESDV [Tat-NR2B9c, reference compound]”, the half-life at 0.25 mM in data set [1] came out at 18.3 ± 5 h. In addition, the “entry into brain, fluorescence microscopy of coronal brain slices” value in data set [2] was “enter the brain”.
